Active and inactive are the calls of the source. Cut-off read from the data, not from the text of the source, for most assays here: actives have a measured Kd and inactives only a lower limit.
Columns and labels:
[1] = target: Tyrosine-protein kinase ABL1 (Homo sapiens, UniProt P00519)
[2] = target: Tyrosine-protein kinase ABL2 (Homo sapiens, UniProt P42684)
[3] = target: T1, Activin receptor type-1B (Homo sapiens, UniProt P36896)
T1 sequence (P36896 whole entry): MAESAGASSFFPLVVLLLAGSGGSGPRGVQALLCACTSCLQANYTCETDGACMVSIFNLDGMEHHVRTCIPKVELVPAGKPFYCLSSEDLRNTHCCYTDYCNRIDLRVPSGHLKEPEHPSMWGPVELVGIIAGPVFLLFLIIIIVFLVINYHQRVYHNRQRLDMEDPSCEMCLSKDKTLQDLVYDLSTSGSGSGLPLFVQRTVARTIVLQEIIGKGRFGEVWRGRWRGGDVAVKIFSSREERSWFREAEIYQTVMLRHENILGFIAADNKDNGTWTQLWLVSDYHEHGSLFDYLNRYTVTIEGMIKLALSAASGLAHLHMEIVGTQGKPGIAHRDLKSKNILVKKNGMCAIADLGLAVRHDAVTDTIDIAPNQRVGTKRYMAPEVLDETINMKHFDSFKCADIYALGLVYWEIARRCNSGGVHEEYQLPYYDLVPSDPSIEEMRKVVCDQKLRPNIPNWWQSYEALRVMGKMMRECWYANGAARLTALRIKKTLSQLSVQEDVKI

[4] = target: Adenylate kinase 2, mitochondrial (Homo sapiens, UniProt P54819)
[5] = target: Tyrosine-protein kinase CSK (Homo sapiens, UniProt P41240)
[6] = target: Casein kinase I isoform alpha (Homo sapiens, UniProt P48729)
[7] = target: T2, ATP-dependent RNA helicase DDX1 (Homo sapiens, UniProt Q92499)
T2 sequence (Q92499 whole entry): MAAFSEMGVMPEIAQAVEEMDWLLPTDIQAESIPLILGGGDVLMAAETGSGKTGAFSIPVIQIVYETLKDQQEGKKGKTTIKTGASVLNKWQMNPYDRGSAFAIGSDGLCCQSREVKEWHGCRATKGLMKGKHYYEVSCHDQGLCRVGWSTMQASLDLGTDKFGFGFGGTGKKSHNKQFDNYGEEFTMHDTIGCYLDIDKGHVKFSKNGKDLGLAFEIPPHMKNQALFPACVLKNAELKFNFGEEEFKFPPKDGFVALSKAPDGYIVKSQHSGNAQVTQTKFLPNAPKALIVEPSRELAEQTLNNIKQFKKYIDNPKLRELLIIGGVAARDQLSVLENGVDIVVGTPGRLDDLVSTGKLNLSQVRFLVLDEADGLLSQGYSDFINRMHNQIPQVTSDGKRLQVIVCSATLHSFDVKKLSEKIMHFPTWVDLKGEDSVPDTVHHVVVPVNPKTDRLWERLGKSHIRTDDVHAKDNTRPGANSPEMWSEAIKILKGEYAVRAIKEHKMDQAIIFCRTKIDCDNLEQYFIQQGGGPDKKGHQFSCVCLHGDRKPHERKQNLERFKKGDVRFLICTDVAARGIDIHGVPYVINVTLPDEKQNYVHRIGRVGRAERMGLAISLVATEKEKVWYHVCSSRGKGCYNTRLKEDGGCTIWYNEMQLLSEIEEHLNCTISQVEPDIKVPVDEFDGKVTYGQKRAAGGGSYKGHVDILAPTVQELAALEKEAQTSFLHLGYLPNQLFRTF

[8] = target: Tyrosine-protein kinase HCK (Homo sapiens, UniProt P08631)
[9] = target: Mitogen-activated protein kinase 9 (Homo sapiens, UniProt P45984)
[10] = target: T3, Dynamin-like GTPase OPA1, mitochondrial (Homo sapiens, UniProt O60313)
T3 sequence (O60313 whole entry): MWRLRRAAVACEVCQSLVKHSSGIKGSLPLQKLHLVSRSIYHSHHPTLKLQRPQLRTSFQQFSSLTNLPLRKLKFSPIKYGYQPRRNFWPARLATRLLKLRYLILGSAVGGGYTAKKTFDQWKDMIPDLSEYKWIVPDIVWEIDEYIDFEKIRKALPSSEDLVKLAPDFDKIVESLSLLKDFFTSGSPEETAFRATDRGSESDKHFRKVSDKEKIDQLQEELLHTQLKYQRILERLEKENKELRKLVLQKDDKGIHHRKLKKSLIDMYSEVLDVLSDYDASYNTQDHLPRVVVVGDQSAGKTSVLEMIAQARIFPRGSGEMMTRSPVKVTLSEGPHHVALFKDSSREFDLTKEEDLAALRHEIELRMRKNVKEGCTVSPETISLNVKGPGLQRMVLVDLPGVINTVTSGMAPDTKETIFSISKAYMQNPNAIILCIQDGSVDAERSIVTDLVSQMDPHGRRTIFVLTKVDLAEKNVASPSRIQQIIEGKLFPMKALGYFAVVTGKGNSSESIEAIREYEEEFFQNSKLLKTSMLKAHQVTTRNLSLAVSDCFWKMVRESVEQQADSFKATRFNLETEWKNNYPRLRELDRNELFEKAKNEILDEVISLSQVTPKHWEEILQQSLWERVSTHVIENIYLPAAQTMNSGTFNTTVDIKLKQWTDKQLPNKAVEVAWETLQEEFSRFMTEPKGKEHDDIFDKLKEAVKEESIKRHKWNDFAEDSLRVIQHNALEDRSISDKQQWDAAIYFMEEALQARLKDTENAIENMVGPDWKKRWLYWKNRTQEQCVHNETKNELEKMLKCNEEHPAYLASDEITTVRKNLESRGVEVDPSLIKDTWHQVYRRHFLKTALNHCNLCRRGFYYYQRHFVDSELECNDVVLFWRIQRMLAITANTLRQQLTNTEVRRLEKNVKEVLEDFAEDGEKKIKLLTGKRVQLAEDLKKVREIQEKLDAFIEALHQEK

[11] = target: Protein kinase C delta type (Homo sapiens, UniProt Q05655)
[12] = target: Wee1-like protein kinase (Homo sapiens, UniProt P30291)
Note: in the data inactive means no Kd found up to 30 µM.

Chain of Tyrosine-protein kinase CSK (P41240 whole entry, canonical isoform): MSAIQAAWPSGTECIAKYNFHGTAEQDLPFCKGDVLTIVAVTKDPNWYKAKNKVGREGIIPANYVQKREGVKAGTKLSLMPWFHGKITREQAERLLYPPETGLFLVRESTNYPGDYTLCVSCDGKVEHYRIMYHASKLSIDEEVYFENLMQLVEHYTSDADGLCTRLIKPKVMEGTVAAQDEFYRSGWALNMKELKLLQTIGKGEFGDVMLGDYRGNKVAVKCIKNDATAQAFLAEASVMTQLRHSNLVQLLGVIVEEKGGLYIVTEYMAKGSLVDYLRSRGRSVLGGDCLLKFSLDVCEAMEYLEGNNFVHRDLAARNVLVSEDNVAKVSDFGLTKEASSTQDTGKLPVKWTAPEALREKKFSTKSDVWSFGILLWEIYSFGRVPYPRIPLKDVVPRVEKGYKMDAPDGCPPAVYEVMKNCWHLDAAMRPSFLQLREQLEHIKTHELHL
Chain of Wee1-like protein kinase (P30291 whole entry): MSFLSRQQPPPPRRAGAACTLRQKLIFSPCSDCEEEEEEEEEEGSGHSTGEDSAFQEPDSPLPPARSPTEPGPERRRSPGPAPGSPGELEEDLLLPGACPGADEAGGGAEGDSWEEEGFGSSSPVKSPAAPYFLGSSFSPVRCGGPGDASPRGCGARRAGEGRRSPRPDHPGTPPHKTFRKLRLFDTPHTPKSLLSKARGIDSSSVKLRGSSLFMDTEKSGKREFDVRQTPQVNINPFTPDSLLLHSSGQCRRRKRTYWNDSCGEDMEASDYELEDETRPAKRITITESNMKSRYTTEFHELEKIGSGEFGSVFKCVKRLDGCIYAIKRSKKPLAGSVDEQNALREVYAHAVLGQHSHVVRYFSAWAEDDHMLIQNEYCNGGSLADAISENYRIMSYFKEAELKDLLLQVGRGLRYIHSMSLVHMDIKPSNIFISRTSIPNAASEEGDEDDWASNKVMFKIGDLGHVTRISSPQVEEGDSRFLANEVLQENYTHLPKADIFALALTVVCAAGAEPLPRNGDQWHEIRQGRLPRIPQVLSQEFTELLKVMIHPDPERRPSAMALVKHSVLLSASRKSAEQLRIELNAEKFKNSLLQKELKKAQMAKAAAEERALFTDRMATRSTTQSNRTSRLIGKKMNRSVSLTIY
Chain of Tyrosine-protein kinase HCK (P08631 whole entry): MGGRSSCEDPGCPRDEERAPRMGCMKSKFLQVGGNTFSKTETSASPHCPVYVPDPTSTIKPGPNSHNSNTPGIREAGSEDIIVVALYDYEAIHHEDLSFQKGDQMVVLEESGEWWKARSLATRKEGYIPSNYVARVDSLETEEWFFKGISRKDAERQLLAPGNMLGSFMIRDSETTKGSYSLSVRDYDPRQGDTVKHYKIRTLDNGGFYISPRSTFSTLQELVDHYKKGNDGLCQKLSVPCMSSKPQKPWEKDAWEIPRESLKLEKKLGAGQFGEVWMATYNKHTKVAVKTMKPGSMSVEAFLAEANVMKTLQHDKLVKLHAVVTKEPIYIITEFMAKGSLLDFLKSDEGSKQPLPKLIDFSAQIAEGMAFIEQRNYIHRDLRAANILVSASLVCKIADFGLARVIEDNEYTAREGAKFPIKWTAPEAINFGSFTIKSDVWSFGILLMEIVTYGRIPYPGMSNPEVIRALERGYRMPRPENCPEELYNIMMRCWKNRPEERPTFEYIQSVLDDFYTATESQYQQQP
Chain of Protein kinase C delta type (Q05655 whole entry): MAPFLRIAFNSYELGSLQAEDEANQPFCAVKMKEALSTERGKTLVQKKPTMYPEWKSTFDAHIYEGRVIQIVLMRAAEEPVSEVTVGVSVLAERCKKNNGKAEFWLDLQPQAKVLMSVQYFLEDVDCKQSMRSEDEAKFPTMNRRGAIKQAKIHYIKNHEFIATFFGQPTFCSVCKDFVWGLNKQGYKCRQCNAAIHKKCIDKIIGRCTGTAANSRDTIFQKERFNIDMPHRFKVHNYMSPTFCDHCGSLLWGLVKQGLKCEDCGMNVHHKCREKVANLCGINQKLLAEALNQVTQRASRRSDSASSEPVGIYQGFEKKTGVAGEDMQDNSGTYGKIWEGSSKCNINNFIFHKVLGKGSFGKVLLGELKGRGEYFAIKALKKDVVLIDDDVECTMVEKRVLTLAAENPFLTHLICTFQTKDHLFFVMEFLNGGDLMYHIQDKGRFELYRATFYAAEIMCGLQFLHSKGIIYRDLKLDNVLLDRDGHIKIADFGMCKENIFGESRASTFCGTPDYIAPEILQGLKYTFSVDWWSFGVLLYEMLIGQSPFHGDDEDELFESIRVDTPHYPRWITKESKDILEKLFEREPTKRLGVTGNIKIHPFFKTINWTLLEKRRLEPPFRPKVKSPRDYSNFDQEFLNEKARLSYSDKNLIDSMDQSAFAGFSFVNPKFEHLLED
Chain of Tyrosine-protein kinase ABL2 (P42684 whole entry): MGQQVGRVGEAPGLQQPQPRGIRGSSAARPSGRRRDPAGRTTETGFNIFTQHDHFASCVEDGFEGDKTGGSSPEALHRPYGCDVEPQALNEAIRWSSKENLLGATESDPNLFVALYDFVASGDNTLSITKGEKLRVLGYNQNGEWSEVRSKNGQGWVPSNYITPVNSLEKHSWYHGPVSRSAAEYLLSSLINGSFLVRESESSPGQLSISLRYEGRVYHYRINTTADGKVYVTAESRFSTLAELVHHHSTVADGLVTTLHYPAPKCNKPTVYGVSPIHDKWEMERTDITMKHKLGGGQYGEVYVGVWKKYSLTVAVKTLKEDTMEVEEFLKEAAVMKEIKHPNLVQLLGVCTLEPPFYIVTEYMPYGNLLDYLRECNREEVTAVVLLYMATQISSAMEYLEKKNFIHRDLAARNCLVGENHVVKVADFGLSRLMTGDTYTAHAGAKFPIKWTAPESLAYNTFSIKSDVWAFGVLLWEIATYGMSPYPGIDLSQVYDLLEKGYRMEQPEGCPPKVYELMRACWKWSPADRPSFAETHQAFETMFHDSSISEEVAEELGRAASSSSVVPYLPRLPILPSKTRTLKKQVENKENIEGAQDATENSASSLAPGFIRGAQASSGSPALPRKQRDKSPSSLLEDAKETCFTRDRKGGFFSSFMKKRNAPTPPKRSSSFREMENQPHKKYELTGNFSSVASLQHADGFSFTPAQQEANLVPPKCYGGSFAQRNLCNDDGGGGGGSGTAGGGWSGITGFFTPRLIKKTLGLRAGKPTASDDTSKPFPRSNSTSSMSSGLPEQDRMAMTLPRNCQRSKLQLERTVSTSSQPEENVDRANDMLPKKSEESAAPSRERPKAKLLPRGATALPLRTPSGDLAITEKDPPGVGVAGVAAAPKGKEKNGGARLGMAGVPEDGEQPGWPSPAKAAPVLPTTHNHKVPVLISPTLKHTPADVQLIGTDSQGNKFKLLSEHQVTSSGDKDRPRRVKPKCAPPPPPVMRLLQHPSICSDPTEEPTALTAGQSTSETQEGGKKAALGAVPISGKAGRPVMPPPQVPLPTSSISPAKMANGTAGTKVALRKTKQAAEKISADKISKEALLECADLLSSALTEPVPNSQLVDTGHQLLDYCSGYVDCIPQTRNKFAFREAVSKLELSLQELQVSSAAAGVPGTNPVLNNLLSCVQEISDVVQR
Chain of Casein kinase I isoform alpha (P48729 whole entry, canonical isoform): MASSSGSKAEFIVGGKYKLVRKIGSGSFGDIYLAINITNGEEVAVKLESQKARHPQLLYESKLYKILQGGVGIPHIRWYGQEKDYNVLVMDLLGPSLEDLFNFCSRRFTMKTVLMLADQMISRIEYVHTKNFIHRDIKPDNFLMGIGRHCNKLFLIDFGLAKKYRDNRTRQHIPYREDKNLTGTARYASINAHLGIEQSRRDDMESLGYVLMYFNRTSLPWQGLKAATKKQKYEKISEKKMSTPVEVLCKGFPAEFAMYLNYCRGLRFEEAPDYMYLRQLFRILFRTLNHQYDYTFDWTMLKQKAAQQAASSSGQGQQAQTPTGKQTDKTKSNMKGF
Chain of Mitogen-activated protein kinase 9 (P45984 whole entry): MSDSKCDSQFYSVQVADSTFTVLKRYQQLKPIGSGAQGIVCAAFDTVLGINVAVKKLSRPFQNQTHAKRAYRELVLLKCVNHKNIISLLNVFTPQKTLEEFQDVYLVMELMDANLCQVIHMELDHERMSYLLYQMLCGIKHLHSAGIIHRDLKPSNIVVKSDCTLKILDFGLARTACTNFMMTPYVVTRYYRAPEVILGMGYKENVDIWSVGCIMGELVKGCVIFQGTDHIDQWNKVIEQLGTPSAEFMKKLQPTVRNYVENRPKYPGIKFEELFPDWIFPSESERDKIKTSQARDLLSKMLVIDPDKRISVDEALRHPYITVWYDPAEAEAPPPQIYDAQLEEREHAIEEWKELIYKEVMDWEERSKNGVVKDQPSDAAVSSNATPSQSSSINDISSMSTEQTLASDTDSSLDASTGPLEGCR

Structure (SMILES)	Kd [1]	Kd [2]	Kd [3]	Kd [4]	Kd [5]	Kd [6]	Kd [7]	Kd [8]	Kd [9]	Kd [10]	Kd [11]	Kd [12]
Cc1c(NC(=O)OC[C@@H]2COCCN2)cn2ncnc(Nc3ccc4c(cnn4Cc4cccc(F)c4)c3)c12 [AC-480]	> 30 µM (inactive)	> 30 µM (inactive)	> 30 µM (inactive)	> 30 µM (inactive)	> 30 µM (inactive)	> 30 µM (inactive)	> 30 µM (inactive)	> 30 µM (inactive)	> 30 µM (inactive)	> 30 µM (inactive)	> 30 µM (inactive)	> 30 µM (inactive)
Cc1cc(Nc2nc(N[C@@H](C)c3ncc(F)cn3)ncc2Cl)n[nH]1 [AZD-1480]	> 30 µM (inactive)	> 30 µM (inactive)	> 30 µM (inactive)	> 30 µM (inactive)	> 30 µM (inactive)	> 30 µM (inactive)	> 30 µM (inactive)	> 30 µM (inactive)	> 30 µM (inactive)	> 30 µM (inactive)	> 30 µM (inactive)	> 30 µM (inactive)
COc1cc2ncnc(Nc3ccc(O)cc3)c2cc1OC [WHI-P131]	> 30 µM (inactive)	> 30 µM (inactive)	> 30 µM (inactive)	> 30 µM (inactive)	> 30 µM (inactive)	> 30 µM (inactive)	> 30 µM (inactive)	> 30 µM (inactive)	> 30 µM (inactive)	> 30 µM (inactive)	> 30 µM (inactive)	> 30 µM (inactive)
NC[C@@](O)(c1ccc(Cl)cc1)c1ccc(-c2cn[nH]c2)cc1 [AT-13148]	> 30 µM (inactive)	> 30 µM (inactive)	> 30 µM (inactive)	> 30 µM (inactive)	> 30 µM (inactive)	> 30 µM (inactive)	> 30 µM (inactive)	> 30 µM (inactive)	> 30 µM (inactive)	> 30 µM (inactive)	0.044 µM (active)	> 30 µM (inactive)
CNC(=O)c1cc(COc2nnc(Nc3ccc(Cl)cc3)c3ccoc23)ccn1 [TELATINIB]	> 30 µM (inactive)	> 30 µM (inactive)	> 30 µM (inactive)	> 30 µM (inactive)	> 30 µM (inactive)	> 30 µM (inactive)	> 30 µM (inactive)	> 30 µM (inactive)	> 30 µM (inactive)	> 30 µM (inactive)	> 30 µM (inactive)	> 30 µM (inactive)
COc1cc(F)c(F)c(Nc2ccc(I)cc2F)c1NS(=O)(=O)C1(C[C@H](O)CO)CC1 [REFAMETINIB]	> 30 µM (inactive)	> 30 µM (inactive)	> 30 µM (inactive)	> 30 µM (inactive)	> 30 µM (inactive)	> 30 µM (inactive)	> 30 µM (inactive)	> 30 µM (inactive)	> 30 µM (inactive)	> 30 µM (inactive)	> 30 µM (inactive)	> 30 µM (inactive)
CC1(COc2ccc3c(c2)ncn3-c2ccc3cccc(N4CCC(N)CC4)c3n2)COC1 [CRENOLANIB]	> 30 µM (inactive)	> 30 µM (inactive)	> 30 µM (inactive)	> 30 µM (inactive)	> 30 µM (inactive)	> 30 µM (inactive)	> 30 µM (inactive)	> 30 µM (inactive)	> 30 µM (inactive)	> 30 µM (inactive)	–	> 30 µM (inactive)
CNC(=O)c1ccc(Nc2ncc(C(F)(F)F)c(NCc3nccnc3N(C)S(C)(=O)=O)n2)cc1 [DEFACTINIB]	> 30 µM (inactive)	> 30 µM (inactive)	> 30 µM (inactive)	> 30 µM (inactive)	> 30 µM (inactive)	> 30 µM (inactive)	> 30 µM (inactive)	> 30 µM (inactive)	> 30 µM (inactive)	> 30 µM (inactive)	> 30 µM (inactive)	–
CCc1nc(C(N)=O)c(Nc2ccc(N3CCC(N4CCN(C)CC4)CC3)c(OC)c2)nc1NC1CCOCC1 [GILTERITINIB]	> 30 µM (inactive)	> 30 µM (inactive)	> 30 µM (inactive)	> 30 µM (inactive)	> 30 µM (inactive)	> 30 µM (inactive)	–	1.59 µM (active)	0.43 µM (active)	> 30 µM (inactive)	> 30 µM (inactive)	> 30 µM (inactive)
O=c1[nH]c([C@@H]2CCCN2)nc2c1oc1ccc(Cl)cc12	> 30 µM (inactive)	> 30 µM (inactive)	> 30 µM (inactive)	> 30 µM (inactive)	> 30 µM (inactive)	> 30 µM (inactive)	–	> 30 µM (inactive)	> 30 µM (inactive)	> 30 µM (inactive)	> 30 µM (inactive)	> 30 µM (inactive)
CCOc1ccn(-c2ccc(F)cc2)c(=O)c1C(=O)Nc1ccc(Oc2ccnc(N)c2Cl)c(F)c1 [BMS-777607]	0.523 µM (active)	–	> 30 µM (inactive)	> 30 µM (inactive)	> 30 µM (inactive)	> 30 µM (inactive)	> 30 µM (inactive)	> 30 µM (inactive)	> 30 µM (inactive)	> 30 µM (inactive)	> 30 µM (inactive)	> 30 µM (inactive)
C=CCN(/C=C1/C(=O)O[C@H](COC)[C@@]2(C)C1=C(O)C(=O)C1=C2[C@H](OC(C)=O)C[C@]2(C)C(=O)CC[C@@H]12)CC=C [SONOLISIB]	> 30 µM (inactive)	> 30 µM (inactive)	> 30 µM (inactive)	–	> 30 µM (inactive)	> 30 µM (inactive)	–	> 30 µM (inactive)	> 30 µM (inactive)	> 30 µM (inactive)	> 30 µM (inactive)	> 30 µM (inactive)
O=C(O)c1ccc2c(c1)nc(Nc1cccc(Cl)c1)c1ccncc12 [SILMITASERTIB]	> 30 µM (inactive)	> 30 µM (inactive)	> 30 µM (inactive)	> 30 µM (inactive)	> 30 µM (inactive)	> 30 µM (inactive)	–	> 30 µM (inactive)	> 30 µM (inactive)	> 30 µM (inactive)	> 30 µM (inactive)	> 30 µM (inactive)

Reference: ChEMBL document CHEMBL3991601, “The target landscape of clinical kinase drugs” (Science, 2017)
